From US12077605B2, “Cysteine protease inhibitors and methods of use thereof” (ANIXA BIOSCIENCES, INC., priority 2022, dated 2024)

Target: SARS-CoV-2 main protease M^pro (Severe acute respiratory syndrome coronavirus 2 (2019-nCoV) (SARS-CoV-2), UniProt P0DTD1)
Experiment: Mpro enzyme activity assay (biochemical FRET-based)
Conditions: recombinant Mpro (Ser1-Gln306); EDANS/Dabcyl FRET substrate peptide 2 μM; 30 min pre-incubation; pH 7.3; read-out: Mpro inhibition IC50

**Q.** `CNC(=O)C(=O)[C@H](CN1CCNC1=O)NC(=O)[C@H](CC(C)C)NC(=O)c1cc2c(OC)cccc2[nH]1` [compound 2, 4-methoxy-N-((S)-4-methyl-1-(((S)-4-(methylamino)-3,4-dioxo-1-(2-oxoimidazolidin-1-yl)butan-2-yl)amino)-1-oxopentan-2-yl)-1H-indole-2-carboxamide] was tested. Which IC50 did it give?
**A.** Its IC50 is 0.114 µM.
